Data on 4 compounds can be found in ChEMBL document CHEMBL4371047, “Effect of α-Methoxy Substitution on the Anti-HIV Activity of Dihydropyrimidin-4(3 H)-ones” (J Med Chem, 2019).

Data set [1] has as its system Human immunodeficiency virus 1. The data set is described as follows: Resistance index, ratio of EC50 for HIV-1 harboring reverse transcriptase K103N mutant to EC50 for wild type HIV-1 NL4-3. Type of data set: functional.
Data set [2] addresses Human immunodeficiency virus type 1 reverse transcriptase (Human immunodeficiency virus 1) (UniProt Q72547).
Description: Inhibition of recombinant wild type HIV-1 His-tagged reverse transcriptase p66/p51 expressed in Escherichia coli assessed as reduction in [3H]dTTP incorporation using poly(rA)/oligo(dT) as template/primer after 20 mins by scintillation counting analysis
The subject of data set [3] is Human immunodeficiency virus 1. Nature of the data set: Antiviral activity against HIV-1 IRLL98 harboring reverse transcriptase M41L, D67N, Y181C, M184V, R211K, and T215Y mutants infected in human MT4 cells assessed as inhibition of virus-induced cytopathic effect after 5 days by MTT assay. Format: functional, organism-based. Particulars: Human immunodeficiency virus 1, IRLL98, MT4, 120 h. On the technique in general: Protection from cytopathic effect is a common read-out in antiviral testing.

Data set [4] relates to Human immunodeficiency virus 1. The data set is described as follows: Resistance index, ratio of EC50 for HIV-1 harboring reverse transcriptase Y181C mutant to EC50 for wild type HIV-1 NL4-3. Format: functional.
Data set [5] deals with Human immunodeficiency virus 1. Nature of the data set: Resistance index, ratio of ID50 for recombinant HIV-1 His-tagged reverse transcriptase p66/p51 L100I mutant to ID50 for recombinant wild type HIV-1 reverse transcriptase His-tagged p66/p51.
Data set [6] relates to Human immunodeficiency virus 1. Nature of the data set: Potency index, ratio of TMC120 EC50 to compound EC50 for HIV-1 IRLL98 harboring reverse transcriptase M41L, D67N, Y181C, M184V, R211K, and T215Y mutants infected in human MT4 cells. Type of data set: functional.
The test system of data set [7] is Human immunodeficiency virus 1. Nature of the data set: Potency index, ratio of EFV EC50 to compound EC50 for HIV-1 harboring reverse transcriptase K103N/Y181C double mutant infected in human MT4 cells. Format: functional.
A short description of data set [8]: Cytotoxicity against human MT4 cells assessed as reduction in cell viability after 5 days by MTT assay. Type of data set: cell-based. For orientation: Formazan colour is commonly taken as a measure of viable cells.
Data set [9] relates to Human immunodeficiency virus type 1 reverse transcriptase (Human immunodeficiency virus 1), Q72547 [Y181I].
In data set [10] the test system is Human immunodeficiency virus type 1 reverse transcriptase (Human immunodeficiency virus 1), Q72547 [L100I].
The test system of data set [11] is Human immunodeficiency virus 1. The data set is described as follows: Resistance index, ratio of ID50 for recombinant HIV-1 His-tagged reverse transcriptase p66/p51 K103N mutant to ID50 for recombinant wild type HIV-1 reverse transcriptase His-tagged p66/p51.
Data set [12] has as its system Human immunodeficiency virus 1. The data set is described as follows: Antiviral activity against HIV-1 harboring reverse transcriptase K103N/Y181C double mutant infected in human MT4 cells assessed as inhibition of virus-induced cytopathic effect after 5 days by MTT assay. Type of data set: functional, organism-based. The following applies: Human immunodeficiency virus 1, MT4, 120 h.

The test system of data set [13] is Human immunodeficiency virus 1. Nature of the data set: Potency index, ratio of EFV EC50 to compound EC50 for HIV-1 IRLL98 harboring reverse transcriptase M41L, D67N, Y181C, M184V, R211K, and T215Y mutants infected in human MT4 cells. Format: functional.
In data set [14] the test system is Human immunodeficiency virus 1. The data set is described as follows: Antiviral activity against HIV-1 harboring reverse transcriptase K103N mutant infected in human MT4 cells assessed as inhibition of virus-induced cytopathic effect after 5 days by MTT assay. Type of data set: functional, organism-based. The following applies: Human immunodeficiency virus 1, MT4, 120 h.

In data set [15] the test system is Human immunodeficiency virus 1. Nature of the data set: Antiviral activity against HIV 1 harboring reverse transcriptase Y181C mutant infected in human MT4 cells assessed as inhibition of virus-induced cytopathic effect after 5 days by MTT assay. Format: functional, organism-based. Particulars: Human immunodeficiency virus 1, MT4, 120 h.
The subject of data set [16] is Human immunodeficiency virus 1. The data set is described as follows: Resistance index, ratio of EC50 for HIV-1 harboring reverse transcriptase Y188L mutant to EC50 for wild type HIV-1 NL4-3. Format: functional.
Data set [17] concerns Human immunodeficiency virus type 1 reverse transcriptase (Human immunodeficiency virus 1), Q72547 [K103N].
Description: Inhibition of recombinant HIV-1 His-tagged reverse transcriptase p66/p51 K103N mutant expressed in Escherichia coli assessed as reduction in [3H]dTTP incorporation using poly(rA)/oligo(dT) as template/primer after 20 mins by scintillation counting analysis
Data set [18] can be described thus: Therapeutic index, ratio of CC50 for human MT4 cells to EC50 for HIV-1 NL4-3 infected in human MT4 cells. Particulars: read-out: Ratio CC50/EC50. Format: toxicity, cell-based.
For data set [19], the system named is Human immunodeficiency virus 1. The data set is described as follows: Resistance index, ratio of ID50 for recombinant HIV-1 His-tagged reverse transcriptase p66/p51 Y181I mutant to ID50 for recombinant wild type HIV-1 reverse transcriptase His-tagged p66/p51.
Data set [20] deals with Human immunodeficiency virus 1. The data set is described as follows: Antiviral activity against HIV-1 harboring reverse transcriptase Y188L mutant infected in human MT4 cells assessed as inhibition of virus-induced cytopathic effect after 5 days by MTT assay. Format: functional, organism-based. Particulars: Human immunodeficiency virus 1, MT4, 120 h.
Data set [21] relates to Human immunodeficiency virus 1. Nature of the data set: Antiviral activity against wild type HIV 1 NL4-3 infected in human MT4 cells assessed as inhibition of virus-induced cytopathic effect after 5 days by MTT assay. Type of data set: functional, organism-based. The following applies: Human immunodeficiency virus 1, NL4-3, MT4, 120 h.
Data set [22] relates to Human immunodeficiency virus 1. Nature of the data set: Resistance index, ratio of EC50 for HIV-1 IRLL98 harboring reverse transcriptase M41L, D67N, Y181C, M184V, R211K, and T215Y mutants to EC50 for wild type HIV-1 NL4-3. Type of data set: functional.
Data set [23] relates to Human immunodeficiency virus 1. Nature of the data set: Resistance index, ratio of EC50 for HIV-1 harboring reverse transcriptase K103N/Y181C double mutant to EC50 for wild type HIV-1 NL4-3. Type of data set: functional.

Where only a bound is given, the exact number is not on record here.

One may read the EC50 as the concentration at which the effect is half-maximal. One may read the CC50 as the concentration at which the toxic effect on the cells reaches its halfway point.

Take `COC(c1nc(NC2CCCC2)[nH]c(=O)c1C)c1c(F)cccc1F` (stereo not drawn): the “Ratio EC50” value in data set [1] is on record as 6 - 7; in data set [4], 83 - 86; in data set [6] it was 3 - 10; in [7] it was 5 - 15; in [13] it was 2000 - 3000; in [16] it was 822 - 875. Moreover, the results for the “Ratio EC50” value in data set [22] and in data set [23] were 2 and 85, respectively. Further, the ID50 stood at 15 nM in [2], 850 nM in data set [9], 350 nM in data set [10] and 39 nM in [17]. Moreover, the EC50 is 2 nM in [3]; 77 nM in data set [12]; 5 to 6 nM in data set [14]; 69 to 75 nM in data set [15]; 700 to 740 nM in data set [20]; 0.8 to 0.9 nM in [21]. In addition, the Ratio in [5] amounted to 23; in data set [11] it was 3; in data set [19] it was 57. The CC50 at 120 h in data set [8] turned out to be 74600 nM. Besides, in data set [18], the selectivity ratio is 82900 to 93200.

As to `CCC(C)Sc1nc(C(OC)c2c(F)cccc2Cl)c(C)c(=O)[nH]1` (stereo not drawn), the “Ratio EC50” value in [1] was 5; in data set [4], 135; in [6], 3 - 10; in data set [7], 5 - 15; in [13] it was 2000 - 3000; in data set [16], 275. Also, the results for the “Ratio EC50” value in data set [22] and in data set [23] were 3 and 140, respectively. The ID50 in data set [2] turned out to be 0.9 nM; in data set [9], 640 nM; in data set [10], 120 nM; in [17] it was 12 nM. For the same compound, the EC50 in [3] stood at 0.6 nM; in data set [12], 28 nM; in data set [14], 1 nM; in [15] it was 27 nM; in data set [20], 55 nM; in data set [21], 0.2 nM. In addition, the Ratio in [5] worked out at 133; in data set [11], 13; in [19], 711. Moreover, in data set [8], the CC50 at 120 h came out at 52800 nM. Moreover, the selectivity ratio in [18] amounted to 264000.

Consider `Cc1c(C(C)c2c(F)cccc2F)nc(NC2CCCC2)[nH]c1=O` (stereo not drawn), for which the “Ratio EC50” value in [1] is listed as 16; in data set [4] it was 9; in data set [16] it was 38; in data set [22], 3; in data set [23], 17. Also, the ID50 was found to be 30 nM in data set [2], 1700 nM in data set [9], 500 nM in data set [10] and 380 nM in data set [17]. In addition, the EC50 in data set [3] worked out at 85 nM; in data set [12], 420 nM; in [14], 410 nM; in [15] it was 220 nM; in data set [20], 950 nM; in data set [21], 25 nM. The Ratio is 17 in [5] and 57 in data set [19]. The CC50 at 120 h in [8] was determined as 90000 nM. Further, in data set [18], the selectivity ratio was 3600.

In the case of `COC(c1nc(SC(C)C)[nH]c(=O)c1C)c1c(F)cccc1Cl` (stereo not drawn), the “Ratio EC50” value was 16 - 20 in data set [1]; 83 - 90 in [4]; 3 - 10 in [6]; 5 - 15 in data set [7]; 2000 - 3000 in data set [13]; 144 - 173 in data set [16]. The “Ratio EC50” value in data set [22] came to 2; in [23] it was 92. Besides, the ID50 is 4 to 5 nM in data set [2], 1500 to 1600 nM in [9], 900 to 950 nM in data set [10] and 81 to 89 nM in [17]. Further, the EC50 in data set [3] is 1 nM; in [12], 46 nM; in [14], 6 to 8 nM; in [15], 25 to 45 nM; in data set [20], 52 to 72 nM; in data set [21], 0.3 to 0.5 nM. The values for the Ratio in data set [5], in data set [11] and in [19] were 190 to 225, 18 to 20 and 320 to 375, respectively. Further, in [8], the CC50 at 120 h is above 70000 nM. Besides, the selectivity ratio in data set [18] lay within 140000 to 233000.
